Reference: patent publication US6905016B2, “Packaging system for transdermal drug delivery systems” (Noven Pharmaceuticals, Inc., priority 2000, dated 2005)
“Also recorded” adds a separate entry of the source.

Assays:
[1] = prescribed for morning sickness during pregnancy; cited from earlier work
beta-adrenergic = details: L-form versus D-enantiomer; cited from earlier work
[2] = Degradation of methylphenidate in presence of moisture or packaging materials (observation)

O=C1CCC(N2C(=O)c3ccccc3C2=O)C(=O)N1 (single isomer, unassigned) [D-enantiomer of thalidomide, thalidomide]
safety/effect of enantiomer in pregnancy [1]: safe and effective sedative

O=C1CCC(N2C(=O)c3ccccc3C2=O)C(=O)N1 (single isomer, unassigned) [L-enantiomer of thalidomide, thalidomide]
safety/effect of enantiomer in pregnancy [1]: potent teratogen

CC(C)NC[C@H](O)COc1cccc2ccccc12 [L-form of propranolol, propranolol]
potency relative to the D-enantiomer (beta-adrenergic): 100 times

COC(=O)C(c1ccccc1)C1CCCCN1 (centres unmarked) [methylphenidate]
stability in the presence of packaging materials ([2]; certain types of packaging materials used for transdermal systems): unstable
degradation in the presence of moisture ([2]; exposure to moisture): form ritalinic acid by hydrolysis; also recorded: formation of the erythro-enantiomers
